Experimental data published in patent publication US20260284062A1 (Konstantin Pavlovich GARYAEV, priority 2023, published 2026).

Legend:
[1] = 0.5% Novocaine, 5.0-10.0 ml, in medicinal mixture administered into the recommended sites; cited from earlier work
[2] = system: myocardial infarction, ischemic stroke and peripheral thrombosis; conditions: oral antiplatelet therapy with acetylsalicylic acid and clopidogrel; cited from earlier work
[3] = Patient history of statin treatment (tolerability); type: in vivo, human; conditions: history of patient M. (Example 1)

Compound | reduction of the risk of myocardial infarction, ischemic stroke and peripheral thrombosis [2] | further results
CCN(CC)CCOC(=O)c1ccc(N)cc1 [Novocaine] |  | undesirable effects [1]: reduction of arterial pressure up to collapse, dizziness, headache, arrhythmia
CC(=O)Oc1ccccc1C(=O)O [acetylsalicylic acid] | 20-25% | 
COC(=O)[C@H](c1ccccc1Cl)N1CCc2sccc2C1 [clopidogrel] | 20-25% | 
CCC(C)(C)C(=O)O[C@H]1C[C@@H](C)C=C2C=C[C@H](C)[C@H](CC[C@@H]3C[C@@H](O)CC(=O)O3)[C@H]21 [simvastatin] |  | tolerability of earlier treatment [3]: discontinued due to side effects
